Where two headings read alike, the source gives them in different places.
Key:
[1] = molecular target: T1, human α-thrombin (Homo sapiens, UniProt P00734); test: Serine protease inhibition assay, fluorogenic substrate: thrombin; type: biochemical
T1 construct: human α-thrombin (active) protein; purchased antibodies-online ABIN2127880
Description: Serine protease inhibition assays. The inhibitory activity of synthesized compounds towards thrombin, FXIIa, FXa, FXIa, plasmin, plasma kallikrein, chymotrypsin, and trypsin was measured by quantifying the hydrolysis rate of the fluorogenic substrate as reported previously [14, 17]. Briefly, the activity was tested in buffer (10 mM Tris-Cl, 150 mM NaCl, 10 mM MgCl2·6H2O, 1 mM CaCl2·2H2O, 0.1% w/v BSA, 0.01% v/v Triton-X100, pH = 7.4) utilizing clear flat-bottom, black polystyrene 96 well-plates. […] The fluorogenic substrate solution was added into the wells followed by the addition of 2 µL of test-compounds solution, and the reaction was triggered by addition of the enzyme solution (final testing volume–152 µL). In case of blank (substrate + buffer) and control (substrate + enzyme) wells, 2 µL of DMSO was added instead of the test-compounds’ solution. […] To derive IC50 values, endpoint RFU (single fluorescence reading) was used. Sigmoidal curves were prepared in GraphPad Prism software and IC50 values were derived from the fitted curves [14, 17].

[2] = molecular target: T2, human β-FXIIa (Homo sapiens, UniProt P00748); test: Serine protease inhibition assay, fluorogenic substrate: FXIIa; type: biochemical; settings: for IC50: read-out: Serine Protease IC50 ± SD, FXIIa
T2 construct: human β-FXIIa, HFXIIAB; purchased Molecular Innovations HFXIIAB
T2 sequence (P00748 373-615 limits assumed, other chains not shown): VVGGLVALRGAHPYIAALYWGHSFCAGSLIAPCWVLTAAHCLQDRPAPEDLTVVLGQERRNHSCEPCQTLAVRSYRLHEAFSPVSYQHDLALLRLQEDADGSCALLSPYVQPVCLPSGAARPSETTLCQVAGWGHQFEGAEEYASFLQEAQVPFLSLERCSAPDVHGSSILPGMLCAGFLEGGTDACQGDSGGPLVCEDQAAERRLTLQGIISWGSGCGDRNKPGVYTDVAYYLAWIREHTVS
Description: Serine protease inhibition assays. The inhibitory activity of synthesized compounds towards thrombin, FXIIa, FXa, FXIa, plasmin, plasma kallikrein, chymotrypsin, and trypsin was measured by quantifying the hydrolysis rate of the fluorogenic substrate as reported previously. Briefly, the activity was tested in buffer (10 mM Tris-Cl, 150 mM NaCl, 10 mM MgCl2·6H2O, 1 mM CaCl2·2H2O, 0.1% w/v BSA, 0.01% v/v Triton-X100, pH = 7.4) utilizing clear flat-bottom, black polystyrene 96 well-plates. […] Dilutions of test-compounds ranging from 2 nM to 32 µM (final concentrations) in DMSO were prepared. The fluorogenic substrate solution was added into the wells followed by the addition of 2 µL of test-compounds solution, and the reaction was triggered by addition of the enzyme solution (final testing volume–152 µL). In case of blank (substrate + buffer) and control (substrate + enzyme) wells, 2 µL of DMSO was added instead of the test-compounds’ solution. Fluorescence intensity was measured with Microplate Reader Mithras LB 940 (Berthold Technologies, excitation at 355 nm, emission at 460 nm) for a period of 1 h (thrombin, FXIIa, FXa, FXIa, and trypsin), 30 min (plasma kallikrein, chymotrypsin), or 15 min (plasmin) with a read every minute. The reactions were performed at 25 °C. To derive IC50 values, endpoint RFU (single fluorescence reading) was used. Sigmoidal curves were prepared in GraphPad Prism software and IC50 values were derived from the fitted curves.

[3] = read-out: Serine Protease IC50 ± SD, Thrombin
[4] = [S]0 = 25 µM Boc-Val-Pro-Arg-AMC, Km = 18 ± 1 µM, triplicate, 25 °C, read-out: Serine Protease IC50 ± SD, Thrombin

SMILES | melting point | IC50 [1, 3] [µM] | IC50 [2] [µM] | further results
O=c1c2ccccc2n(Cc2ccco2)c2cc(-c3cccnc3)nn12 [10d, 4-[(furan-2-yl)methyl]-2-(pyridin-3-yl)pyrazolo[5,1-b]quinazolin-9(4H)-one] | 272 °C | > 5 | > 5 | 
O=C(c1ccccc1I)n1nc(-c2cccnc2)cc1NCc1ccccc1 [9a, [5-(benzylamino)-3-(pyridin-3-yl)-1H-pyrazol-1-yl](2-iodophenyl)methanone] | 115 °C | > 5 | > 5 | 
O=C(c1ccccc1I)n1nc(-c2ccccc2)cc1NCc1ccc(Cl)s1 [9g, (5-{[(5-chlorothiophen-2-yl)methyl]amino}-3-phenyl-1H-pyrazol-1-yl)(2-iodophenyl)methanone] | 137 to 138 °C |  | > 5 | IC50 [1, 4]: 1.31 ± 0.032 µM; IC50 ([1]; read-out: thrombin IC50): 1.3 µM
O=C(c1ccccc1I)n1nc(C2CCCCC2)cc1NCc1ccc(Cl)s1 [9i, (5-{[(5-chlorothiophen-2-yl)methyl]amino}-3-cyclohexyl-1H-pyrazol-1-yl)(2-iodophenyl)methanone] |  |  | > 5 | thrombin inhibitory properties (in words) [1]: no activity; IC50 [1, 4]: > 5 µM
[H]/N=C(/N)c1ccc(NCc2nc3cc(C(=O)N(CCC(=O)O)c4ccccn4)ccc3n2C)cc1 [Dabigatran, reference compound] |  |  | > 5 | 
O=c1c2ccccc2n(Cc2ccccc2)c2cc(-c3cccnc3)nn12 [10a, 4-benzyl-2-(pyridin-3-yl)pyrazolo[5,1b]quinazolin-9(4H)-one] | 266 °C | > 5 | > 5 | 
COc1ccc(CNc2cc(-c3cccnc3)nn2C(=O)c2ccccc2I)cc1 [9b, (2-iodophenyl){5-[(4-methoxybenzyl)amino]-3-(pyridin-3-yl)-1H-pyrazol-1-yl}methanone] | 136 to 137 °C | > 5 | > 5 | 
O=c1c2ccccc2n(Cc2cccc3ccccc23)c2cc(-c3cccnc3)nn12 [10c, 4-[(naphthalen-1-yl)methyl]-2-(pyridin-3-yl)pyrazolo[5,1-b]quinazolin-9(4H)-one] | 252 °C | > 5 | > 5 | 
O=C(Nc1cc(-c2cccnc2)n[nH]1)c1ccccc1I [compound 14, 2-iodo-N-[3-(pyridin-3-yl)-1H-pyrazol-5-yl]benzamide] |  | > 5 | > 5 | 
O=c1c2ccccc2n(Cc2ccc(Cl)s2)c2nc(-c3cnccn3)nn12 [compound 19, 4-[(5-chlorothiophen-2-yl)methyl]-2-(pyrazin-2-yl)-[1,2,4]triazolo[5,1-b]quinazolin-9(4H)-one] |  | > 5 | > 5 | 
O=C(c1ccccc1I)n1nc(-c2cccnc2)cc1NCc1ccc(Cl)s1 [9e, (5-{[(5-chlorothiophen-2-yl)methyl]amino}-3-(pyridin-3-yl)-1H-pyrazol-1-yl)(2-iodophenyl)methanone] |  | 0.165 ± 0.005 | > 5 | fold more potent thrombin inhibitor than 3-phenyl-substituted counterpart 9g ([1]; IC50 165 nM vs. 1.3 μM): about 8 fold
O=C(c1ccccc1I)n1nc(C2CCCCC2)cc1NCc1ccccc1 [9h, [5-(benzylamino)-3-cyclohexyl-1H-pyrazol-1-yl](2-iodophenyl)methanone] |  | > 5 | > 5 | 
O=C(c1ccccc1I)n1nc(-c2cccnc2)cc1NCC1CCCCC1 [9f, {5-[(cyclohexylmethyl)amino]-3-(pyridin-3-yl)-1H-pyrazol-1-yl}(2-iodophenyl)methanone] |  | > 5 | > 5 | 
O=c1c2ccccc2n(Cc2ccc(Cl)s2)c2cc(-c3ccccc3)nn12 [10g, 4-[(5-chlorothiophen-2-yl)methyl]-2-phenylpyrazolo[5,1-b]quinazolin-9(4H)-one] |  | > 5 | > 5 | 
O=c1c2ccccc2[nH]c2nc(-c3cccnc3)nn12 [compound 20, 2-(pyridin-3-yl)-[1,2,4]triazolo[5,1-b]quinazolin-9(4H)-one] |  | > 5 | > 5 | 
O=c1[nH]c2cc(-c3cccnc3)nn2c2ccccc12 [compound 15, 2-(pyridin-3-yl)pyrazolo[1,5-a]quinazolin-5(4H)-one] |  | > 5 | > 5 | 
O=c1[nH]c2nc(-c3ccncc3)nn2c2ccccc12 [compound 23, 2-(pyridin-4-yl)-[1,2,4]triazolo[1,5-a]quinazolin-5(4H)-one] |  | > 5 | > 5 | 
O=c1[nH]c2nc(-c3cccnc3)nn2c2ccccc12 [compound 21, 2-(pyridin-3-yl)-[1,2,4]triazolo[1,5-a]quinazolin-5(4H)-one] |  | > 5 | > 5 | 
O=c1c2ccccc2n(CC2CCCCC2)c2cc(-c3cccnc3)nn12 [10f, 4-(cyclohexylmethyl)-2-(pyridin-3-yl)pyrazolo[5,1-b]quinazolin-9(4H)-one] |  | > 5 | > 5 | 
O=c1c2ccccc2[nH]c2nc(-c3ccncc3)nn12 [compound 22, 2-(pyridin-4-yl)-[1,2,4]triazolo[5,1-b]quinazolin-9(4H)-one] |  | > 5 |  | 

Second part, led by results:

melting point | IC50 [1, 3] [µM] | IC50 [2] [µM] | SMILES | further results
130 to 131 °C |  | > 5 | CC(C)(C)C(=O)n1nc(-c2cccnc2)cc1NCc1cccc2ccccc12 [24c, 2,2-dimethyl-1-(5-{[(naphthalen-1-yl)methyl]amino}-3-(pyridin-3-yl)-1H-pyrazol-1-yl)propan-1-one] | IC50 [1, 4]: > 5 µM
47 °C |  | > 5 | CC(C)(C)C(=O)n1nc(C2CCCCC2)cc1NCc1ccccc1 [24h, 1-[5-(benzylamino)-3-cyclohexyl-1H-pyrazol-1-yl]-2,2-dimethylpropan-1-one] | thrombin inhibitory properties (in words) [1]: inactive; IC50 [1, 4]: > 5 µM; FXIIa inhibitory properties (in words) [2]: inactive
 | > 5 | > 5 | Nc1cc(-c2cccnc2)nn1C(=O)c1ccccc1 [29a, [5-amino-3-(pyridin-3-yl)-1H-pyrazol-1-yl](phenyl)methanone] | 
92 to 93 °C |  | > 5 | CC(C)(C)C(=O)n1nc(C2CCCCC2)cc1NCc1ccc(Cl)s1 [24i, 1-(5-{[(5-chlorothiophen-2-yl)methyl]amino}-3-cyclohexyl-1H-pyrazol-1-yl)-2,2-dimethylpropan-1-one] | IC50 [1, 4]: > 5 µM
130 °C |  | > 5 | COc1ccc(CNc2cc(-c3cccnc3)nn2C(=O)C(C)(C)C)cc1 [24b, 1-{5-[(4-methoxybenzyl)amino]-3-(pyridin-3-yl)-1H-pyrazol-1-yl}-2,2-dimethylpropan-1-one] | IC50 [1, 4]: 1.282 ± 0.009 µM; IC50 ([1]; read-out: thrombin IC50): ~1.3 µM
 |  | > 5 | CC(C)(C)C(=O)n1nc(-c2cccnc2)cc1NCc1ccco1 [24d, 1-(5-{[(furan-2-yl)methyl]amino}-3-(pyridin-3-yl)-1H-pyrazol-1-yl)-2,2-dimethylpropan-1-one] | IC50 [1, 4]: 1.31 ± 0.032 µM; IC50 ([1]; read-out: thrombin IC50): ~1.3 µM
 | > 5 | > 5 | Nc1cc(-c2ccccc2)nn1C(=O)c1ccccc1 [29b, (5-amino-3-phenyl-1H-pyrazol-1-yl)(phenyl)methanone] | 
 |  | > 5 | CC(C)(C)C(=O)n1nc(-c2ccccc2)cc1NCc1ccc(Cl)s1 [24g, 1-(5-{[(5-chlorothiophen-2-yl)methyl]amino}-3-phenyl-1H-pyrazol-1-yl)-2,2-dimethylpropan-1-one] | IC50 [1, 4]: 0.419 ± 0.099 µM
270 °C (dec.) |  |  | O=C(Nc1cc(-c2cccnc2)n[nH]1)c1ccccc1 [26a, N-[3-(pyridin-3-yl)-1H-pyrazol-5-yl]benzamide] | 

Source: article PMC9696832, “Pyrazole-Based Thrombin Inhibitors with a Serine-Trapping Mechanism of Action: Synthesis and Biological Activity” (Pharmaceuticals, 2022)
